A word on the IC50: it is the concentration needed to halve the response being measured. Higher therefore signals weaker potency in that assay.

The text below walks through data of paper PMC9270327 (Communications Biology, 2022).

The test system of this test is SARS-CoV-2 Wuhan-Hu-1 D614G, Caco-2 cells. Type of test: cell-based. The following applies: for IC50: Caco-2 cells; for SARS-CoV-2 infection, Mean (0 nM = 100): Fig. 6b, D614G isolate.
The mark [1] stands for this setting: in-cell ELISA 2 days post infection.

Where a name gives a salt, the structure may show the parent alone. Read-outs that look alike come from different tables or passages of the source.

For ace-Arg-Pro-Arg-kbt [Compound 2], the IC50 by setting is: (2 days post infection) 17.1 µM; under setting [1], 17.1 µM. Also, the “SARS-CoV-2 infection, Mean (0 nM = 100)” value came out at 95.739 (compound 32 nM); 98.0747 (compound 160 nM); 97.5395 (compound 800 nM); 101.461 (compound 4000 nM); 23.4531 (compound 20000 nM); 0.121 (compound 100000 nM).
For `CN(C)C(=O)COC(=O)Cc1ccc(OC(=O)c2ccc(NC(=N)N)cc2)cc1` [CM, camostat mesylate, reference compound], the IC50 stood at 26.7 µM (2 days post infection) and 26.7 µM under setting [1]. The “SARS-CoV-2 infection, Mean (0 nM = 100)” value runs as follows: (compound 32 nM) 93.4834; (compound 160 nM) 88.1889; (compound 800 nM) 88.3001; (compound 4000 nM) 93.3101; (compound 20000 nM) 68.3858; (compound 100000 nM) 1.574.
